From patent US7678918B2, “Intermediates for imidazonaphthyridines” (3M Innovative Properties Company, priority 1997, dated 2010)

What was measured:
[1] = test system: IFN; assay: Cytokine Induction in Human Cells: interferon (IFN) secreted by PBMCs, A549/encephalomyocarditis bioassay; format: cell-based; details: 18 to 24 hours; further: call rule not given here
Method in brief: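 Human PBMCs from healthy donors at 1.5-2×10^6 cells/mL in RPMI with 10% FBS, exposed to compounds (typically 0.1 to 100 μM, ≤1% DMSO) for 18 to 24 h at 37° C. Secreted IFN measured by A549/encephalomyocarditis virus cytopathic-effect bioassay, in alpha reference units/mL against NIH human leukocyte IFN standard.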

[2] = test system: interferon α; assay: Interferon (α) Induction in Human Cells (PBM's, 48 hours, A549 bioassay); format: cell-based; set-up: key: +: indicates that the compound induced interferon α at that particular concentration; −: indicates that the compound did not induce interferon α at that particular concentration; ±: indicates that the results were equivocal at that particular concentration; details: 48 hours incubation
Description: An in vitro human blood cell system was used to assess interferon induction by compounds of the invention. Activity is based on the measurement of interferon secreted into culture media. Interferon is measured by bioassay.
Whole blood was collected by venipuncture into EDTA vacutainer tubes. Peripheral blood mononuclear cells (PBM's) were separated from whole blood by using either LeucoPREP™ Brand Cell Separation Tubes (available from Becton Dickinson) or Ficoll-Paque® solution (available from Pharmacia LKB Biotechnology Inc, Piscataway, N.J.). The PBM's were suspended at 1×10^6/mL in RPMI 1640 media (available from GIBCO, Grand Island, N.Y.) containing 25 mM HEPES (N-2-hydroxyethylpiperazine-N′-2-ethanesulfonic acid) and L-glutamine (1% penicillin-streptomycin solution added) with 10% heat inactivated (56° C. for 30 minutes) autologous serum added. 200 μL portions of PBM suspension were added to 96 well (flat bottom) MicroTest III sterile tissue culture plates.
The compounds were solubilized in ethanol, dimethyl sulfoxide or tissue culture water then diluted with tissue culture water, 0.01N sodium hydroxide or 0.01N hydrochloric acid (The choice of solvent will depend on the chemical characteristics of the compound being tested.). Ethanol or DMSO concentration should not exceed a final concentration of 1% for addition to the culture wells. Compounds were initially tested in a concentration range of from about 0.1 μg/mL to about 5 μg/mL. Compounds which show induction at a concentration of 0.5 μg/mL were then tested in a wider concentration range.
The solution of test compound was added in a volume (less than or equal to 50 μL) to the wells containing 200 μL of diluted whole blood or of PBM's in media. Solvent and/or media was added to control wells (wells with no test compound) and as needed to adjust the final volume of each well to 250 μL. The plates were covered with plastic lids, vortexed gently and then incubated for 48 hours at 37° C. with a 5% carbon dioxide atmosphere.
Following incubation, the plates were covered with parafilm and then centrifuged at 1000 rpm for 10 to 15 minutes at 4° C. in a Damon IEC Model CRU-5000 centrifuge. Media (about 200 μL) was removed from 4 to 8 wells and pooled into 2 mL sterile freezing vials. Samples were maintained at −70° C. until analysis.
Interferon was determined by bioassay using A549 human lung carcinoma cells challenged with encephalomyocarditis. The details of the bioassay method have been described by G. L. Brennan and L. H. Kronenberg in “Automated Bioassay of Interferons in Micro-test Plates”, Biotechniques, June/July 78, 1983, incorporated herein by reference. Briefly stated the method is as follows: interferon dilutions and A549 cells are incubated at 37° C. for 12 to 24 hours. The incubated cells are infected with an inoculum of encephalomyocarditis virus. The infected cells are incubated for an additional period at 37° C. before quantifying for viral cytopathic effect. The viral cytopathic effect is quantified by staining followed by spectrophotometric absorbance measurements. Results are expressed as alpha reference units/mL based on the value obtained for NIH HU IF-L standard. The interferon was identified as essentially all interferon alpha by testing in checkerboard neutralization assays against rabbit anti-human interferon (beta) and goat anti-human interferon (alpha) using A549 cell monolayers challenged with encephalomyocarditis virus.

[3] = test system: TNF; assay: Cytokine Induction in Human Cells: tumor necrosis factor (TNF) secreted by PBMCs, ELISA; format: cell-based; details: 18 to 24 hours; further: call rule not given here
Method in brief: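 Human donor PBMCs at 1.5-2×10^6 cells/mL in RPMI with 10% FBS were exposed to compound, generally at 0.1 to 100 μM (≤1% DMSO final), for 18 to 24 h at 37 °C. Secreted TNF in supernatant was measured by ELISA and reported as pg/mL.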

SMILES	melting point	IFN induction ([1]; Dose Concentration 0.1 μM)	IFN induction ([1]; Dose Concentration 1.0 μM)	IFN induction ([1]; Dose Concentration 10.0 μM)	IFN induction ([1]; Dose Concentration 100.0 μM)	Interferon (α) Induction in Human Cells ([2]; Dose Concentration 0.01 μg/mL)	Interferon (α) Induction in Human Cells ([2]; Dose Concentration 0.05 μg/mL)	Interferon (α) Induction in Human Cells ([2]; Dose Concentration 0.10 μg/mL)	Interferon (α) Induction in Human Cells ([2]; Dose Concentration 0.50 μg/mL)	Interferon (α) Induction in Human Cells ([2]; Dose Concentration 1.0 μg/mL)	Interferon (α) Induction in Human Cells ([2]; Dose Concentration 5.0 μg/mL)	Interferon (α) Induction in Human Cells ([2]; Dose Concentration 10.0 μg/mL)	Interferon (α) Induction in Human Cells ([2]; Dose Concentration 25.0 μg/mL)	Interferon (α) Induction in Human Cells ([2]; Dose Concentration 50.0 μg/mL)	TNF induction ([3]; Dose Concentration 0.1 μM)	TNF induction ([3]; Dose Concentration 1.0 μM)	TNF induction ([3]; Dose Concentration 10.0 μM)	TNF induction ([3]; Dose Concentration 100.0 μM)
CC(C)Cn1cnc2c(N)nc3c(c21)CCCN3 [Example 10, 6,7,8,9-Tetrahydro-1-(2-methylpropyl)-1H-imidazo[4,5-c][1,8]naphthyridin-4-amine]	231 to 233 °C	+	+	+	+	−	−	−	−	+	+	+	+	+	−	−	−	+
CC(C)Cn1cnc2c(N)nc3cnccc3c21 [Example 22, 1-(2-Methylpropyl)-1H-imidazo[4,5-c][1,7]naphthyridin-4-amine]	306 to 307 °C		−	−	−					−	−	−	+			−	±	+
CC(C)Cn1cnc2c(N)nc3c(c21)CCNC3 [Example 23, 6,7,8,9-Tetrahydro-1-(2-methylpropyl)-1H-imidazo[4,5-c][1,7]naphthyridin-4-amine]	220 to 223 °C		+	+	−					−	−	−	−			−	±	−
Cc1nc2c(N)nc3cnccc3c2n1CC(C)C [Example 25, 2-Methyl-1-(2-methylpropyl)-1H-imidazo[4,5-c][1,7]naphthyridin-4-amine]	322 to 324 °C		−	+	+	−	−	−	−	−	+	+	+			−	±	−
Cc1nc2c(N)nc3c(c2n1CC(C)C)CCNC3 [Example 26, 6,7,8,9-Tetrahydro-2-methyl-1-(2-methylpropyl)-1H-imidazo[4,5-c][1,7]naphthyridin-4-amine]	226 to 230 °C		+	−	+	−	−	−	−	−	±	+	+			+	±	−
CCCCc1nc2c(N)nc3cnccc3c2n1CC(C)C [Example 27, 2-Butyl-1-(2-methylpropyl)-1H-imidazo[4,5-c][1,7]naphthyridin-4-amine]	213 to 214 °C		+	+	+	−	−	+	+	+	+	+	+			+	+	+
CCCCc1nc2c(N)nc3c(c2n1CC(C)C)CCNC3 [Example 28, 2-Butyl-6,7,8,9-tetrahydro-1-(2-methylpropyl)-1H-imidazo[4,5-c][1,7]naphthyridin-4-amine]	164 to 166 °C		+	+	+	−	±	+	+	+	+	+	+			−	+	+
